From patent publication US20090306093A1, “METHOD FOR TREATING PATIENT HAVING BENIGN PROSTATE HYPERPLASIA” (KAOHSIUNG MEDICAL UNIVERSITY, priority 2008, published 2009)

Assays:
a1D-adrenoceptor = biological target: T1, a1D-adrenoceptor (Rattus norvegicus, UniProt P23944); assay: [3H]-prazosin competition binding, rat aorta membranes; conditions: read-out: Receptor Affinity (pKi) a1D (converted)
T1 construct: The submaxillary glands, spleen, and aorta of rats were separately homogenized; from tissue; host or cells: Wistar rat aorta membranes
T1 sequence (P23944 1-561): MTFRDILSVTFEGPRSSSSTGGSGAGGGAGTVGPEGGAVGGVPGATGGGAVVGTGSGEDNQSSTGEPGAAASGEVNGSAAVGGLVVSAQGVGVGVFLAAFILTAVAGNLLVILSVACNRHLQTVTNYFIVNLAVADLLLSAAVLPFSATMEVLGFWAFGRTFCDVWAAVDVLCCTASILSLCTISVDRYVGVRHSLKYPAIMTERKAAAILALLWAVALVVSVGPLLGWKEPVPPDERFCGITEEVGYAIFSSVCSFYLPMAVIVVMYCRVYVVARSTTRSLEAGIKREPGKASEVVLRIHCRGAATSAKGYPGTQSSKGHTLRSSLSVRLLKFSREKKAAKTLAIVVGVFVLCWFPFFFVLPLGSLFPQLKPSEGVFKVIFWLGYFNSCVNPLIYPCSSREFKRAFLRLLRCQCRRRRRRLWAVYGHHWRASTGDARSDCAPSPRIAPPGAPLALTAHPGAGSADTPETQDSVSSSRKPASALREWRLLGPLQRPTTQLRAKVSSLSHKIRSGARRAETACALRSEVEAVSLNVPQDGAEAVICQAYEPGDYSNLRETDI
Procedure: Wistar rats were obtained from National Laboratory Animal Breeding and Research Center (Taipei, Taiwan) and housed under a constant temperature and controlled illumination. The submaxillary glands, spleen, and aorta of rats were separately homogenized for 30 seconds with a Kinematica polytron in 20 volumes of ice-cold TE buffer (10 mM Tris HCl, 1 mM EDTA, 0.1 mM ascorbic acid, pH 7.4). The homogenate was filtered under pressure through muslin and the filtrate was centrifuged at 1,000 g for 10 minutes. The supernatant was centrifuged again at 10,000 g for 12 minutes at 4° C. The second supernatant was centrifuged at 30,000 g for 15 minutes at 4° C., and the final pellet was resuspended in the assay buffer (75 mM Tris HCl, 25 mM MgCl2, pH 7.4). Protein content was determined by Bradford's method.
[^3H]-prazosin, KMUP-1 and membranes (200-300 μg) were incubated for 60 minutes at 25° C. with or without the addition of nonspecific binding agents, in a 75 mM Tris HCl buffer with 25 mM MgCl2, making a final volume of 500 μL. In this experiment, non-specific binding was defined by use of 10 μM phentolamine. […] Membrane-bound radioligand trapped in the filters was counted in a Beckman LS6500 scintillation system (Fullerton, Calif.) with an efficiency of 45%. In each experiment, nonspecifically bound radioligand agents were measured by incubating membrane protein. […]

ROCK2 = assay: Western blot of phenylephrine-induced Rho kinase (ROCK2) expression in rat prostate; conditions: KMUP-1 10, 100 μM; Y-27632 10 μM; phenylephrine 10 μM
Procedure: In order to examine the expression of Rho kinase in prostate, the prostate strips were pre-incubated with phenylephrine (10 μM) for 30 minutes. After a pre-treatment of phenylephrine, KMUP-1 (10-100 μM) and Y-27632 (10 μM) were further incubated for 30 minutes. After the incubation time, the prostate were extracted with protein extraction reagent (Pierce Biotechnology, Inc., Rockford, Ill., USA.). The PZ-HPV-7 cells were incubated with and without KMUP-1 (0.1-10 μM) at 30 minutes, 8 and 24 hours. They were then washed rapidly with ice-cold PBS, incubated with protein extraction reagent, and scraped from the plates. The prostate tissues and cells were sonicated three times for 10 second each time and centrifuged at 13,000 rpm at 4° C. for 30 minutes. The protein concentrations of supernatants were determined, using bovine serum albumin as the standard. Tissue and cell extract protein were then boiled at a ratio of 4:1 with sample buffer (100 mM Tris, pH 6.8, 20% glycerol, 4% SDS, and 0.2% bromphenol blue). 40-60 μg protein was used in this experiment. Electrophoresis was performed using 10 or 12% SDS-polyacrylamide gel electrophoresis and then transferred to nitrocellulose membranes (Millipore Corporation, Billerica, Mass.). […] The intensity of the bands was measured by densitometry.

Structure (SMILES): Cn1c(=O)c2c(ncn2CCN2CCN(c3ccccc3Cl)CC2)n(C)c1=O [KMUP-1, 7-[2-[4-(2-Chlorobenzene)piperazinyl]ethyl]-1,3-dimethyl xanthine]
- Ki (a1D-adrenoceptor): 20.4 nM
- phenylephrine-induced Rho kinase expression (ROCK2): protected against phenylephrine-induced Rho kinase expression
